Source: ChEMBL document CHEMBL3779878, “Indomethacin based new triazolothiadiazine derivatives: Synthesis, evaluation of their anticancer effects on T98 human glioma cell line related to COX-2 inhibition and docking studies” (2016)
The source made the active and inactive calls. The rule behind the calls is not given here.

Columns and labels:
T98 [1] = experiment: Induction of apoptosis in human T98 cells assessed as early apoptotic cells at 100 uM after 24 hrs by Annexin-V-FITC/propidium iodide staining based flow cytometry analysis (reference value: 1.1 +/- 0.3 %); assay type: functional
T98 [2] = experiment: Induction of apoptosis in human T98 cells assessed as late apoptotic cells at 100 uM after 24 hrs by Annexin-V-FITC/propidium iodide staining based flow cytometry analysis (reference value: 2.7 +/- 1.4 %); assay type: functional
[3] = Induction of apoptosis in human T98 cells assessed as total death rate at 100 uM after 24 hrs by Annexin-V-FITC/propidium iodide staining based flow cytometry analysis (reference value: 3.8 %); assay type: functional
T98 [4] = experiment: Induction of apoptosis in human T98 cells assessed as alive cells at 50 uM after 24 hrs by Annexin-V-FITC/propidium iodide staining based flow cytometry analysis (reference value: 95 +/- 5.6 %); assay type: functional
T98 [5] = experiment: Effect on caspase 8 mRNA expression levels in human T98 cells at 50 to 100 uM by real-time PCR assay; assay type: functional, cell-based
T98 [6] = experiment: Effect on caspase 9 mRNA expression levels in human T98 cells at 50 to 100 uM by real-time PCR assay; assay type: functional, cell-based
T98 [7] = experiment: Induction of apoptosis in human T98 cells assessed as late apoptotic cells at 50 uM after 24 hrs by Annexin-V-FITC/propidium iodide staining based flow cytometry analysis (reference value: 2.7 +/- 1.4 %); assay type: functional
T98 [8] = experiment: Effect on caspase 3 mRNA expression levels in human T98 cells at 50 to 100 uM by real-time PCR assay; assay type: functional, cell-based
[9] = Antiproliferative activity against human T98 cells assessed as reduction in survival rate at 100 uM after 24 hrs by MTT assay relative to control; assay type: functional
[10] = Antiproliferative activity against human T98 cells assessed as reduction in survival rate at 50 uM after 24 hrs by MTT assay relative to control; assay type: functional
T98 [11] = experiment: Induction of apoptosis in human T98 cells assessed as alive cells at 100 uM after 24 hrs by Annexin-V-FITC/propidium iodide staining based flow cytometry analysis (reference value: 95 +/- 5.6 %); assay type: functional
[12] = Reduction in Cox-2 mRNA expression levels in human T98 cells by real-time PCR assay; assay type: functional, cell-based
T98 [13] = experiment: Effect on cytochrome-c mRNA expression levels in human T98 cells at 50 to 100 uM by real-time PCR assay; assay type: functional, cell-based
T98 [14] = experiment: Induction of apoptosis in human T98 cells assessed as early apoptotic cells at 50 uM after 24 hrs by Annexin-V-FITC/propidium iodide staining based flow cytometry analysis (reference value: 1.1 +/- 0.3 %); assay type: functional
[15] = Induction of apoptosis in human T98 cells assessed as total death rate at 50 uM after 24 hrs by Annexin-V-FITC/propidium iodide staining based flow cytometry analysis (reference value: 3.8 %); assay type: functional
T98 [16] = experiment: Antiproliferative activity against human T98 cells assessed as reduction in survival rate at 1 to 100 uM after 24 hrs by MTT assay; assay type: functional, cell-based

COc1ccc2c(c1)c(Cc1nnc3n1N=C(c1ccc(C)cc1)CS3)c(C)n2C(=O)c1ccc(Cl)cc1
Activity (T98 [1]): 12% | Activity (T98 [2]): 47% | Activity [3]: 59% | Activity (T98 [4]): 39% | Activity (T98 [5]): inactive | Activity (T98 [6]): inactive | Activity (T98 [7]): 38% | Activity (T98 [8]): inactive | Activity [9]: 40% | Activity [10]: 25% | Activity (T98 [11]): 31% | Activity [12]: Dose-dependent effect | Activity (T98 [13]): inactive | Activity (T98 [14]): 11% | Activity [15]: 49% | Activity (T98 [16]): Active
